Data set [1] can be described thus: Octanol-water partition coefficient, log P of the compound.
The subject of data set [2] is Rattus norvegicus. Description: Antihypertensive activity in Wistar rat invasive arterial pressure model assessed as reduction of systolic pressure at 1 mg/kg, iv. It counts as functional, organism-based. Further details: dose 1 mg/kg. The note with it: Artery.
In data set [3] the test system is Rattus norvegicus. Nature of the data set: Antiarrhythmic activity in Wistar rat invasive arterial pressure model assessed as reduction of heart rate at 0.1 mg/kg, iv. It counts as functional, organism-based. Further details: dose 0.1 mg/kg.
In data set [4] the test system is Rattus norvegicus. Nature of the data set: Antihypertensive activity in Wistar rat invasive arterial pressure model assessed as reduction of diastolic pressure at 1 mg/kg, iv. Format: functional, organism-based. Further details: dose 1 mg/kg. The note with it: Artery.
Data set [5] has as its system Rattus norvegicus. Description: Antihypertensive activity in Wistar rat invasive arterial pressure model assessed as reduction of systolic pressure at 0.1 mg/kg, iv. Further details: dose 0.1 mg/kg. Format: functional, organism-based. The following applies: Artery.
Data set [6] relates to Rattus norvegicus. Description: Antiarrhythmic activity in spontaneous hypertensive rat model assessed as reduction of heart rate at 0.1 mg/kg, po after 120 mins. Format: functional, organism-based. Further details: dose 0.1 mg/kg.
The test system of data set [7] is Rattus norvegicus. Nature of the data set: Antihypertensive activity in Wistar rat invasive arterial pressure model assessed as reduction of diastolic pressure at 0.1 mg/kg, iv. Format: functional, organism-based. Further details: dose 0.1 mg/kg. The note with it: Artery.
Data set [8] deals with Rattus norvegicus. Description: Antihypertensive activity in spontaneous hypertensive rat model assessed as reduction of diastolic pressure at 0.1 mg/kg, po after 120 mins. It counts as functional, organism-based. Further details: dose 0.1 mg/kg.
Data set [9] has as its system Rattus norvegicus. Nature of the data set: Antihypertensive activity in spontaneous hypertensive rat model assessed as reduction of diastolic pressure at 0.1 mg/kg, po after 50 mins. Further details: dose 0.1 mg/kg. Format: functional, organism-based.
For data set [10], the system named is Rattus norvegicus. Nature of the data set: Antihypertensive activity in spontaneous hypertensive rat model assessed as reduction of systolic pressure at 0.1 mg/kg, po after 50 mins. Format: functional, organism-based. Further details: dose 0.1 mg/kg.
The subject of data set [11] is Rattus norvegicus. Description: Antihypertensive activity in spontaneous hypertensive rat model assessed as reduction of systolic pressure at 0.1 mg/kg, po after 120 mins. Format: functional, organism-based. Further details: dose 0.1 mg/kg.
Data set [12] has as its system Rattus norvegicus. Nature of the data set: Antiarrhythmic activity in spontaneous hypertensive rat model assessed as reduction of heart rate at 0.1 mg/kg, po after 40 mins. Further details: dose 0.1 mg/kg. It counts as functional, organism-based.

One may read the logP as a log measure of how a compound divides between an organic and an aqueous phase.

Structures are written as SMILES. Activity calls are given as the source filed them. No cut-off for these calls is given here.

Compound `CC(C)(C)c1cc(CN2CCSCC2)c(O)c(CN2CCSCC2)c1` came in with a logP in data set [1] of 2.03. The result in the data set on Rattus norvegicus [2], with Rattus norvegicus [3] and in the data set on Rattus norvegicus [4] was Active.
For `C[C@H](CS)C(=O)N1CCC[C@H]1C(=O)O` [CAPTOPRIL], the logP in data set [1] was 1.02.
`CC(C)(C)c1ccc(O)c(CN2CCSCC2)c1`: in [1], the logP was found to be 1.96. In addition, the result in the data set with Rattus norvegicus [2], with Rattus norvegicus [3] and with Rattus norvegicus [4] was Active.
Turning to `Oc1ccc(Cl)cc1CN1CCSCC1`, in data set [1], the logP is over 3.05. Besides, the outcome in the data set with Rattus norvegicus [2], with Rattus norvegicus [3] and with Rattus norvegicus [4] was Active.
`CCCCc1nc(Cl)c(CO)n1Cc1ccc(-c2ccccc2-c2nn[nH]n2)cc1` [LOSARTAN] displayed a logP in data set [1] of 4.01.
As to `CCOC(=O)C1=C(C)NC(C)=C(C(=O)OCC)C1c1cc(CN2CCOCC2)c(O)c(CN2CCOCC2)c1`, the outcome with Rattus norvegicus [5], in the data set on Rattus norvegicus [6], in the data set with Rattus norvegicus [7], with Rattus norvegicus [8], with Rattus norvegicus [9] and in the data set with Rattus norvegicus [3] was Active. Besides, the result in the data set on Rattus norvegicus [10], in the data set with Rattus norvegicus [11] and in the data set on Rattus norvegicus [12] was Active. In addition, the logP in data set [1] is 2.7.

The values are drawn from ChEMBL document CHEMBL1250504, “Antihypertensive and antiarrhythmic properties of a para-hydroxy[bis(ortho-morpholinylmethyl)]phenyl-1,4-DHP compound: comparison with other compounds of the same kind and relationship with logP values” (Eur J Med Chem, 2010).
